{
  "source": "ChEMBL document CHEMBL5365552",
  "about": "“Tryptamines and Mental Health: Activating the 5-HT Receptor for Therapeutic Potential” (ACS Med Chem Lett, 2023)",
  "format_in_all_cases": "ADME, organism-based",
  "key": {"[1]": {"assay": "Prodrug conversion in rat assessed as 4-OH-DiPT formation by measuring AUC at 2 mg/kg, sc measured for 15 to 360 mins by LCMS analysis", "design": "dose 2 mg/kg, time upper 360 min, time lower 15 min, route sc", "details": "in vivo"}, "[2]": {"assay": "Prodrug conversion in rat assessed as 4-OH-DiPT formation by measuring AUC at 2 mg/kg, iv measured for 15 to 360 mins by LCMS analysis", "design": "dose 2 mg/kg, time 15-360 min, route iv", "details": "in vivo"}, "[3]": {"assay": "Prodrug conversion in rat assessed as 4-OH-DiPT formation by measuring Cmax at 2 mg/kg, iv measured for 15 to 360 mins by LCMS analysis", "design": "time upper 360 min, dose 2 mg/kg, time lower 15 min, route iv", "details": "in vivo"}, "[4]": {"assay": "Prodrug conversion in rat assessed as 4-OH-DiPT formation by measuring Cmax at 2 mg/kg, sc measured for 15 to 360 mins by LCMS analysis", "design": "time upper 360 min, time lower 15 min, dose 2 mg/kg, route sc", "details": "in vivo"}, "[5]": {"assay": "Prodrug conversion in rat assessed as 4-OH-DiPT formation by measuring Tmax at 2 mg/kg, sc measured for 15 to 360 mins by LCMS analysis", "details": "in vivo, time 15-360 min"}, "[6]": {"assay": "Prodrug conversion in rat assessed as 4-OH-DiPT formation by measuring bioavailability at 2 mg/kg, sc measured for 15 to 360 mins by LCMS analysis", "details": "in vivo, time 15-360 min"}},
  "data": [
    {"smiles": "CC(C)N(CCc1c[nH]c2cccc(OC(=O)CCCC(=O)O)c12)C(C)C", "values": [
      {"measurement": "AUC", "setting": "[1]", "value": 134, "unit": "ng·h/mL"},
      {"measurement": "AUC", "setting": "[2]", "value": 152, "unit": "ng·h/mL"},
      {"measurement": "Cmax", "setting": "[3]", "value": 458, "unit": "ng/mL"},
      {"measurement": "Cmax", "setting": "[4]", "value": 103, "unit": "ng/mL"},
      {"measurement": "Tmax", "setting": "[5]", "value": 36.6, "unit": "min"},
      {"measurement": "F", "setting": "[6]", "value": 89, "unit": "%"}
    ]}
  ]
}
